Read-outs that look alike come from different tables or passages of the source. Values belong to the molecule of their own block, whether it stands above or below them.
What was measured:
[1] = Rapamycin pharmacokinetics in mice; assay type: in vivo
[2] = tested on: HT1080 cells expressing M30 / M31 (FRAP-FKBP-Fas) constructs; experiment: Rapamycin-regulated apoptosis of stably transfected HT1080 cells; assay type: cell-based, human; conditions: with 50 ng/ml actinomycin D, about 20 hours, alamar blue
Text: (f) Rapamycin-regulated apoptosis of stable transsfected human HT1080 cells in culture XbaI-BamHI fragments from constructs A30 and A31 (d, table 1) were cloned into pCM to generate M30 and M31, constructs that direct the expression of MT5FasSE and MT6FasSE, where M denotes a myristoylation domain (see this example sections A.1. and A.8.) and other abbreviations are as described in d, table 1. EcoRI-BamHI fragments containing these expression cassettes were then cloned into the retroviral vector pSMN3 (Example 7). […] HT1080 cells were infected with viral stock and selected with G418.
The media was removed and replaced with 100 μl of media containing 10% alamar blue dye. Plates were incubated as before, and the extent of cell viability assessed periodically by spectrophotometric determination of OD at 570 nm and 600 nm on a microtiter plate reader. Typically reading was continued until control (untreated) wells are at OD 0.2-0.4 after subtraction of blank.

[3] = tested on: transfected HT1080 cells (hGH target gene) transplanted into nu/nu mice; experiment: Rapamycin-dependent production of hGH in mice; assay type: in vivo
Text: In Vivo Methods: Animals, husbandry, and general procedures. Male nu/nu mice were obtained from Charles River Laboratories (Wilmington, Mass.) and allowed to acclimate for five days prior to experimentation. They were housed under sterile conditions, were allowed free access to sterile food and sterile water throughout the entire experiment, and were handled with sterile techniques throughout.
To transplant transiently transfected cells into mice, 2×10^6 transfected HT1080 cells, were suspended in […] PBS/0.1% BSA/0.1% glucose buffer, and administered into four intramuscular sites (approximately […] per site) on the haunches and flanks of the animals. Control mice received equivalent volume injections of buffer alone.
The accuracy of the dosing solutions was confirmed by HPLC analysis prior to intravenous administration into the tail veins. […] In addition, other control mice, bearing transfected cells, received only the rapamycin vehicle.
Blood was collected by either anesthetizing or sacrificing mice via CO2 inhalation. Anesthetized mice were used to collect […] of blood by cardiac puncture. The mice were revived and allowed to recover for subsequent blood collections. Sacrificed mice were immediately exsanguinated. Blood samples were allowed to clot for 24 hours, at 4° C., and sera were collected following centrifugation at 1000×g for 15 minutes. Serum hGH was measured by the Boehringer Mannheim non-isotopic sandwich ELISA (Cat No. 1 585 878). […] Recommended assay instructions were followed.
Mice were administered transfected HT1080 cells as described above. […] The four remaining doses were given under anesthesia, immediately subsequent to blood collection, at 16, 32, 48, and 64 hours. […] Experimental animals and their control counterparts were each assigned to one of two groups. Each of the two experimental groups and two control groups received identical drug or vehicle treatments, respectively. The groups differed in that blood collection times were alternated between the two groups to reduce the frequency of blood collection for each animal.

FKBPwt = target: T1, FKBPwt (Homo sapiens, UniProt P62942); experiment: Competitive fluorescence polarization (FP) binding assay of rapalogs to FKBP; conditions: for IC50: read-out: FKBPwt FP binding assay IC50
T1 construct: made in house

[4] = =IC50/IC50 of rapamycin, C7 rapalogs

T1 sequence (P62942 whole entry): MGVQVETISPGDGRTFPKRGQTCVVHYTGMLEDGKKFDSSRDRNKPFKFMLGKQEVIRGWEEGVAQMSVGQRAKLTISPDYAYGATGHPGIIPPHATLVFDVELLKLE

SMILES: CO[C@H]1C[C@@H]2CC[C@@H](C)[C@@](O)(O2)C(=O)C(=O)N2CCCC[C@H]2C(=O)O[C@H]([C@H](C)C[C@@H]2CC[C@@H](O)[C@H](OC)C2)CC(=O)[C@H](C)/C=C(\C)[C@@H](O)[C@@H](OC)C(=O)[C@H](C)C[C@H](C)/C=C/C=C/C=C/1C [rapamycin, Rapamycin]
predicted steady-state trough concentration of rapamycin ([1]; 10.0 mg/kg at 16-hour intervals, after two doses): 1.7 µg/mL
half-life ([1]; nu/nu, mouse, in vivo, mice, intravenous): 276 min
survival of stably transfected cells [2]: potently reduced
production of hGH in mice ([3]; 0.01-10.0 mg/kg intravenous, serum 17 hours after dosing): dose-responsive production of hGH
time after treatment at which serum hGH remained detectable ([3]; single 10.0 mg/kg dose): 42 h
time at which serum hGH was observed ([3]; single 10.0 mg/kg dose): within four hours
time of peak serum hGH ([3]; single 10.0 mg/kg dose): eight hours
peak serum hGH level ([3]; single 10.0 mg/kg dose, eight hours): over one hundred times the sensitivity limit of the hGH ELISA

fold loss in affinity (vs rapamycin) (FKBPwt; =IC50/IC50 of rapamycin, C24 analogs, Table 4): 616
IC50 (FKBPwt; rapamycin C24 analogs, Table 4): 1420 nM
SMILES: CO[C@H]1C[C@@H]2CC[C@@H](C)[C@@](O)(O2)C(=O)C(=O)N2CCCC[C@H]2C(=O)O[C@H]([C@H](C)C[C@@H]2CC[C@@H](O)[C@H](OC)C2)C/C(=N\OCc2ccccc2)[C@H](C)/C=C(\C)[C@@H](O)[C@@H](OC)C(=O)[C@H](C)C[C@H](C)/C=C/C=C/C=C/1C [Compound 12, apamycin (E and Z)-24-(O-benzyloxime)]

fold loss in affinity (cf rapamycin) (FKBPwt; [4]): 2.6
IC50 (FKBPwt; C7 rapalogs): 5.9 nM
SMILES: CO[C@@H]1C[C@H](C[C@@H](C)[C@@H]2CC(=O)[C@H](C)/C=C(\C)[C@@H](O)[C@@H](OC)C(=O)[C@H](C)C[C@H](C)/C=C/C=C/C=C(\C)[C@H](c3c[nH]c4ccccc34)C[C@@H]3CC[C@@H](C)[C@@](O)(O3)C(=O)C(=O)N3CCCC[C@H]3C(=O)O2)CC[C@H]1O [Compound 45]

fold loss in affinity (cf rapamycin) (FKBPwt; [4]): 3.3
IC50 (FKBPwt; C7 rapalogs): 7.8 nM
SMILES: CO[C@@H]1C[C@H](C[C@@H](C)[C@@H]2CC(=O)[C@H](C)/C=C(\C)[C@@H](O)[C@@H](OC)C(=O)[C@H](C)C[C@H](C)/C=C/C=C/C=C(\C)[C@@H](c3c[nH]c4ccccc34)C[C@@H]3CC[C@@H](C)[C@@](O)(O3)C(=O)C(=O)N3CCCC[C@H]3C(=O)O2)CC[C@H]1O [Compound 44]

Source: US6649595B2, “Regulation of biological events using novel compounds” (ARIAD Gene Therapeutics, Inc., priority 1995, dated 2003)
